Legend:
[1] = test system: Nippostronglus braziliensis; test: In vitro assay against Nippostronglus braziliensis; assay type: cell-based; design: key: A compound is defined as active if (1) cast formation is reduced 50 percent or more or (2) viability and motility together are reduced 50 percent or more; conditions: 50 μg/ml, fourth larval stage (L4), incubated at 37° C. for seven days
Experimental: N-Benzyloxycarbonyl-D,L-β-(3-bromo-4,5-dihydroisoxazol-5-yl)-alanine benzylamide was active against Nippostronglus braziliensis in an in vitro assay.
Rats were inoculated with 5,000 to 6,000 N. braziliensis third stage larvae subcutaneously. Seventy-two hours later rats were sacrificed and the fourth stage larvae harvested. Each drug was tested at 50 μg/ml against the fourth larval stage (L4) of N. braziliensis at approximately 50 L4/well. This mixture was incubated at 37° C. for a total of seven days and then read for activity. Parameters used to determine drug activity are motility, percent viability, and percent of L4 able to molt to the adult (percent cast formation). A compound is defined as active if (1) cast formation is reduced 50 percent or more or (2) viability and motility together are reduced 50 percent or more.

Hymenolepsis nana = test: In vivo assay of anthelmintic activity, mixed helminth infection in mice; design: species or system Swiss-Webster mice; conditions: 1000 ppm in the food ad lib for 11 days from 24 hours post-infection, sacrificed on day 17
Experimental: (§1) Male, Swiss-Webster mice were challenged with a mixed helminth infection of Nematospiroides dubius and Hymenolepsis nana. Starting 24 hours post-infection (p.i.) mice were treated for 11 days ad lib with N-Benzyloxycarbonyl-D,L-β-(3-bromo-4,5-dihydroisoxazol-5-yl)-alanine benzylamide mixed in the food at 1000 ppm. Animals were sacrificed on day 17 to examine parasite burden in the intestine.

Nematospiroides dubius = test: as above; design: species or system Swiss-Webster mice; conditions: 1000 ppm in the food ad lib for 11 days from 24 hours post-infection, sacrificed on day 17
Experimental: as §1

transglutaminase = conditions: previously reported inhibitors; cited from earlier work
human T-lymphocyte = test: Human T-lymphocyte transformation in vitro; assay type: cell-based; conditions: at 10^-6 in vitro
Source text: Transglutaminase inactivator, N-benzyloxycarbonyl-D,L-β-(3-bromo-4,5-dihydroisoxazol-5-yl)-alanine (4-(ethoxycarbonyl)phenyl)amide, inhibited human T-lymphocyte transformation at 10^-6 in vitro.

[2] = test system: galactose-induced cataracts; test: Cataract therapy: galactose-induced cataracts; assay type: in vivo; conditions: oral route in the diet at 0.05%
tissue transglutaminase = target: T1, tissue transglutaminase (UniProt P08587); test: Inactivation of tissue transglutaminase; assay type: biochemical
T1 construct: Liver transglutaminase from guinea pig liver was isolated and partially purified; from tissue; host or cells: guinea pig liver
T1 sequence (P08587 whole entry): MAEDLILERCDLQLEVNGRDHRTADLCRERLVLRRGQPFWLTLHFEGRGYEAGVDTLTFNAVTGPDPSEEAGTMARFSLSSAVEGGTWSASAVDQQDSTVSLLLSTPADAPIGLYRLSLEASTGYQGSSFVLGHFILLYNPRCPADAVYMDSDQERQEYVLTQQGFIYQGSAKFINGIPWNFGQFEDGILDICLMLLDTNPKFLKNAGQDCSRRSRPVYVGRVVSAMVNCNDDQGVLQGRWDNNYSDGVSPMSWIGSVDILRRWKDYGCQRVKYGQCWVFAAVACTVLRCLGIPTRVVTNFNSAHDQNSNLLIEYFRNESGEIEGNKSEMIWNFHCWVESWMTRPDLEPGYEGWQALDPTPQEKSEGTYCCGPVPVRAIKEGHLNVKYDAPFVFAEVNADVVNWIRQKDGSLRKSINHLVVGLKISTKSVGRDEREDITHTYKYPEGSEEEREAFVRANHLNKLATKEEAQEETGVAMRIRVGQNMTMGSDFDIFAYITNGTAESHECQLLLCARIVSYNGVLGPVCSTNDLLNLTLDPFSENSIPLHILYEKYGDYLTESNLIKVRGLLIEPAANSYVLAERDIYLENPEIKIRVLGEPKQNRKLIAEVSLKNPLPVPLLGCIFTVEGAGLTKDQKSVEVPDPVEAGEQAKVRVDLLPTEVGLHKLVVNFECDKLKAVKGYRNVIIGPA
Experimental: Liver transglutaminase from guinea pig liver was isolated and partially purified according to the procedure outlined in "Methods of Enzymology", Vol. 113, pp. 358-375, with minor modifications. The 105,000×g supernatant from the 15,000×g supernatant of a crude homogenate of guinea pig liver, was chromatographed on DEAE-Sepharose CL-6B. Enzymatic activity was eluted with a 0-1.0M NaCl gradient in 5 mM TRIS, 2 mM EDTA pH 7.5 buffer. Fractions containing activity were pooled, dialyzed against 50 mM TRIS-HCl, 2 mM EDTA, pH 7.5 buffer and concentrated, when necessary, by Amicon Ultrafiltration (PM 10 filters).
The activity and inhibition of guinea pig liver transglutaminase was assayed by measurement of the rate of incorporation of hydroxylamine into simple glutaminyl peptide derivatives, preferably CBZ-(L)-Glutaminyl-Glycine (see Folk and Chung, "Methods in Enzymology", Vol. 113, pp. 359-361). […]
Prior to activity determination, guinea pig liver transglutaminase was activated anaerobically with 5 mM calcium chloride and 1 mM dithiothreitol at 25° C. […] The concentration of product formed after 10-25 minutes incubation was determined by quenching with 250 microliters of acidic ferric chloride reagent and measurement of the absorbance at 525 nm using a Gilford 2600 UV/VIS spectrophotometer. Typical uninhibited samples provided sufficient product for 0.5 absorbance units at 525 nm. […]

Compound: O=C(NC(CC1CC(Br)=NO1)C(=O)NCc1ccccc1)OCc1ccccc1 (racemic) [N-Benzyloxycarbonyl-D,L-β-(3-bromo-4,5-dihydroisoxazol-5-yl)-alanine benzylamide]
- activity against Nippostronglus braziliensis (cast formation, viability and motility) [1]: active
- percent reduction of parasites in the intestine (Hymenolepsis nana) (Hymenolepsis nana): significant percent reduction of parasites
- percent reduction of parasites in the intestine (Nematospiroides dubius) (Nematospiroides dubius): significant percent reduction of parasites

Compound: NCCSSCCN [cystamine]
- concentration at which effective as transglutaminase inhibitor (transglutaminase): greater than 10^-3 M
- specificity for transglutaminases (transglutaminase): lacks specificity

Compound: CCOC(=O)c1ccc(NC(=O)C(CC2CC(Br)=NO2)NC(=O)OCc2ccccc2)cc1 (racemic) [N-benzyloxycarbonyl-D,L-β-(3-bromo-4,5-dihydroisoxazol-5-yl)-alanine (4-(ethoxycarbonyl)phenyl)amide]
- cytotoxicity associated with the inhibition of T-lymphocyte transformation (human T-lymphocyte): not associated with cytotoxicity
- inhibition of human T-lymphocyte transformation (human T-lymphocyte): inhibited
- onset of galactose-induced cataracts [2]: delayed the onset
- inactivation of tissue transglutaminase (tissue transglutaminase): potent inactivator
